From PMC8286840, “Identifying SARS-CoV-2 antiviral compounds by screening for small molecule inhibitors of Nsp3 papain-like protease” (Biochemical Journal, 2021)
Structures can show the parent of a compound that is named as a salt. Where two headings read alike, the source gives them in different places.

Tests used:
[1] = biological target: T1, SARS-CoV-2 PLpro (nsp3 1564–1878) (Severe acute respiratory syndrome coronavirus 2, UniProt P0DTD1); experiment: biochemical; set-up: FRET-quenched peptide (Pro3) cleavage by PLpro, 10 min pre-incubation, slope over 20 min, normalised to no-compound control; conditions: read-out: % of control remaining
[2] = biological target: T1, SARS-CoV-2 PLpro (nsp3 1564–1878); experiment: biochemical; set-up: FRET-quenched peptide (Pro3) cleavage by PLpro, 10 min pre-incubation, slope over 20 min, normalised to no-compound control; conditions: read-out: % of control remaining; remark: listed apart in the source

N/C(=N\C(=O)c1nc(Cl)c(N)nc1N)NCc1ccccc1 [Benzamil hydrochloride]
remaining activity at 3.75 µM ([1]; Well no.=267, high concentration screen): 92.2%
remaining activity at 1.25 µM ([2]; Well no.=267, low concentration screen): 95.3%

COC(=O)[C@H]1[C@@H](O)[C@@]2(O)c3c(OC)cc(O[C@@H]4O[C@@H]([C@H](O)CO)CO[C@H]4OC)cc3O[C@@]2(c2ccc(OC)cc2)[C@@H]1c1ccccc1 [Silvestrol]
remaining activity at 3.75 µM ([1]; Well no.=7120, high concentration screen): 101%
remaining activity at 1.25 µM ([2]; Well no.=7120, low concentration screen): 103%

CCCCCCCCCC(=O)OCC(CO)OC(=O)CCCCCCCCC (stereo not shown) [1,2-Didecanoyl-glycerol (10:0)]
remaining activity at 3.75 µM ([1]; Well no.=4474, high concentration screen): 95.2%
remaining activity at 1.25 µM ([2]; Well no.=4474, low concentration screen): 101%

CCc1ccc(O)cc1 [4-Ethylphenol]
remaining activity at 3.75 µM ([1]; Well no.=6679, high concentration screen): 104%
remaining activity at 1.25 µM ([2]; Well no.=6679, low concentration screen): 103%

NCC1(CC(=O)O)CCCCC1 [Gabapentin]
remaining activity at 3.75 µM ([1]; Well no.=510, high concentration screen): 105%
remaining activity at 3.75 µM ([1]; Well no.=1755, high concentration screen): 100%
remaining activity at 1.25 µM ([2]; Well no.=510, low concentration screen): 104%
remaining activity at 1.25 µM ([2]; Well no.=1755, low concentration screen): 98.1%

N=C(N)NCCC[C@H](N)C(=O)O [L-Arginine HCl]
remaining activity at 3.75 µM ([1]; Well no.=4987, high concentration screen): 100%
remaining activity at 1.25 µM ([2]; Well no.=4987, low concentration screen): 100%

Cc1ccc(/C(=C\CN2CCCC2)c2ccccn2)cc1 [Triprolidine hydrochloride]
remaining activity at 3.75 µM ([1]; Well no.=1197, high concentration screen): 90.1%
remaining activity at 1.25 µM ([2]; Well no.=1197, low concentration screen): 87.7%

C[C@@]1(C2CCCC2)Cc2cc(OCC(=O)O)c(Cl)c(Cl)c2C1=O [R(+)-IAA-94]
remaining activity at 3.75 µM ([1]; Well no.=921, high concentration screen): 105%
remaining activity at 1.25 µM ([2]; Well no.=921, low concentration screen): 104%

CN(C[C@@H]1COCCO1)S(=O)(=O)Nc1ccc2ccc3ncc(-c4cnn(C)c4)cc3c(=O)c2c1 [MK-2461]
remaining activity at 3.75 µM ([1]; Well no.=4737, high concentration screen): 105%
remaining activity at 1.25 µM ([2]; Well no.=4737, low concentration screen): 105%

NCCNC(=O)c1ccc(Cl)cc1 [Ro 16-6491 hydrochloride]
remaining activity at 3.75 µM ([1]; Well no.=1448, high concentration screen): 92.5%
remaining activity at 1.25 µM ([2]; Well no.=1448, low concentration screen): 94.7%

CCCC(=O)NCCc1csc(-c2ccc(Cl)cc2)n1 [Azoramide]
remaining activity at 3.75 µM ([1]; Well no.=8488, high concentration screen): 99.7%
remaining activity at 1.25 µM ([2]; Well no.=8488, low concentration screen): 98.4%

CN(C)CCCC1(c2ccc(F)cc2)OCc2cc(C#N)ccc21 (stereo not shown) [Citalopram hydrobromide]
remaining activity at 3.75 µM ([1]; Well no.=90, high concentration screen): 100%
remaining activity at 1.25 µM ([2]; Well no.=90, low concentration screen): 95%

COc1ccc(CNc2nc(N3CCC[C@H]3CO)ncc2C(=O)NCc2ncccn2)cc1Cl [Avanafil]
remaining activity at 3.75 µM ([1]; Well no.=5078, high concentration screen): 100%
remaining activity at 1.25 µM ([2]; Well no.=5078, low concentration screen): 101%

N[C@@H](CC(=O)O)C(=O)O [L-Aspartic acid]
remaining activity at 3.75 µM ([1]; Well no.=248, high concentration screen): 97.3%
remaining activity at 3.75 µM ([1]; Well no.=7683, high concentration screen): 106%
remaining activity at 1.25 µM ([2]; Well no.=248, low concentration screen): 96.2%

O/N=C/c1cc[n+](C[n+]2ccc(/C=N/O)cc2)cc1 [MMB-4]
remaining activity at 3.75 µM [1]: 93.7%
remaining activity at 1.25 µM [2]: 95.4%

CC(C)N(CCCCOCC(=O)NS(C)(=O)=O)c1cnc(-c2ccccc2)c(-c2ccccc2)n1 [NS-304]
remaining activity at 3.75 µM ([1]; Well no.=6795, high concentration screen): 94.6%
remaining activity at 1.25 µM ([2]; Well no.=6795, low concentration screen): 97.6%

CC(C)c1cc(/C=C(\C#N)C(=O)NCCCc2ccccc2)cc(C(C)C)c1O [Tyrphostin SU 1498]
remaining activity at 3.75 µM ([1]; Well no.=5970, high concentration screen): 89.5%
remaining activity at 1.25 µM ([2]; Well no.=5970, low concentration screen): 90%

Cn1c(=O)c2[nH]cnc2n(C)c1=O [Aminophylline]
remaining activity at 3.75 µM ([1]; Well no.=1542, high concentration screen): 103%
remaining activity at 1.25 µM ([2]; Well no.=1542, low concentration screen): 101%

CCCCCC/C=C/CCCCCCCCCC(=O)O [11(E)-Octadecenoic acid]
remaining activity at 3.75 µM ([1]; Well no.=4350, high concentration screen): 104%
remaining activity at 1.25 µM ([2]; Well no.=4350, low concentration screen): 106%

CC[C@@]1(O)C(=O)OCc2c1cc1n(c2=O)Cc2cc3ccccc3nc2-1 [Camptothecin]
remaining activity at 3.75 µM ([1]; Well no.=1664, high concentration screen): 84.5%
remaining activity at 3.75 µM ([1]; Well no.=3127, high concentration screen): 91.9%
remaining activity at 1.25 µM ([2]; Well no.=1664, low concentration screen): 98.5%
remaining activity at 1.25 µM ([2]; Well no.=3127, low concentration screen): 96.8%

NS(=O)(=O)c1cc2c(cc1Cl)N=C(CSCc1ccccc1)NS2(=O)=O [Benzthiazide]
remaining activity at 3.75 µM ([1]; Well no.=8586, high concentration screen): 93.6%
remaining activity at 1.25 µM ([2]; Well no.=8586, low concentration screen): 98.4%

O=C(N[C@H]1CCS[C@H]2CCC[C@@H](C(=O)O)N2C1=O)[C@@H](S)Cc1ccccc1 [Omapatrilat]
remaining activity at 3.75 µM ([1]; Well no.=8466, high concentration screen): 95%
remaining activity at 1.25 µM ([2]; Well no.=8466, low concentration screen): 99.9%

O=C1OC(CN2CCOCC2)CN1/N=C/c1ccc([N+](=O)[O-])o1 (stereo not shown) [5-(4-morpholinylmethyl)-3-{[(E)-(5-nitro-2-furyl)methylidene]amino}-1,3-oxazolidin-2-one]
remaining activity at 3.75 µM ([1]; Well no.=6079, high concentration screen): 98.7%
remaining activity at 1.25 µM ([2]; Well no.=6079, low concentration screen): 99.9%

CCC(=O)NCC[C@@H]1CCc2ccc3c(c21)CCO3 [Ramelteon]
remaining activity at 3.75 µM ([1]; Well no.=8525, high concentration screen): 106%
remaining activity at 1.25 µM ([2]; Well no.=8525, low concentration screen): 104%

Cn1c(=O)c(F)c(Nc2ccc(I)cc2F)c2c(=O)n(C[C@@H](O)CO)cnc21 [TAK-733]
remaining activity at 3.75 µM ([1]; Well no.=4954, high concentration screen): 97.8%
remaining activity at 1.25 µM ([2]; Well no.=4954, low concentration screen): 101%

N=C(N)N1CCc2ccccc2C1 [Debrisoquin]
remaining activity at 3.75 µM ([1]; Well no.=1905, high concentration screen): 99.9%
remaining activity at 1.25 µM ([2]; Well no.=1905, low concentration screen): 99.9%

CCCc1nc(C(C)(C)O)c(C(=O)O)n1Cc1ccc(-c2ccccc2-c2nnn[nH]2)cc1 [Olmesartan]
remaining activity at 3.75 µM ([1]; Well no.=1794, high concentration screen): 95.4%
remaining activity at 3.75 µM ([1]; Well no.=7669, high concentration screen): 99%
remaining activity at 1.25 µM ([2]; Well no.=1794, low concentration screen): 94.8%
remaining activity at 1.25 µM ([2]; Well no.=7669, low concentration screen): 100%

CN1C2=CC(=O)/C(=N\NC(N)=O)C=C2CC1S(=O)(=O)O (stereo not shown) [Carbazochrome sodium sulfonate]
remaining activity at 3.75 µM ([1]; Well no.=5261, high concentration screen): 95%
remaining activity at 1.25 µM ([2]; Well no.=5261, low concentration screen): 96.5%

COc1ccc2c(c1)[nH]c1c(C)nccc12 [Harmine]
remaining activity at 3.75 µM ([1]; Well no.=2092, high concentration screen): 88.2%
remaining activity at 3.75 µM ([1]; Well no.=3681, high concentration screen): 97.5%
remaining activity at 3.75 µM ([1]; Well no.=8343, high concentration screen): 83.5%
remaining activity at 1.25 µM ([2]; Well no.=2092, low concentration screen): 90.6%
remaining activity at 1.25 µM ([2]; Well no.=3681, low concentration screen): 97.5%
remaining activity at 1.25 µM ([2]; Well no.=8343, low concentration screen): 96.2%

CSc1ccc(/C=C2/C(C)=C(CC(=O)O)c3cc(F)ccc32)cc1 [Sulindac sulfide]
remaining activity at 3.75 µM ([1]; Well no.=6089, high concentration screen): 93.8%
remaining activity at 1.25 µM ([2]; Well no.=6089, low concentration screen): 96.2%

N[C@@H](Cc1ccc(O)c(I)c1)C(=O)O [3-Iodo-L-tyrosine]
remaining activity at 3.75 µM ([1]; Well no.=919, high concentration screen): 104%
remaining activity at 1.25 µM ([2]; Well no.=919, low concentration screen): 103%

Cc1cn2cc(C(=O)N(C)CCO)cc(N[C@@H]3CCOc4cccc(C)c43)c2n1 [PF-03716556]
remaining activity at 3.75 µM ([1]; Well no.=6006, high concentration screen): 96%
remaining activity at 1.25 µM ([2]; Well no.=6006, low concentration screen): 97.5%

CN(C)CCN(C)CCc1ccc(Cl)c(Cl)c1 [BD 1047 dihydrobromide]
remaining activity at 3.75 µM ([1]; Well no.=5470, high concentration screen): 108%
remaining activity at 1.25 µM ([2]; Well no.=5470, low concentration screen): 101%

CN1CCN(c2nc(C3=C(c4c[nH]c5ccccc45)C(=O)NC3=O)c3ccccc3n2)CC1 [Sotrastaurin (AEB071)]
remaining activity at 3.75 µM ([1]; Well no.=4747, high concentration screen): 109%
remaining activity at 1.25 µM ([2]; Well no.=4747, low concentration screen): 105%
